PubChem BioAssay AID248 (DTP/NCI, 2004)
“And” between values parts separate entries of the source, which are not always exact repeats. Equal values may be shown once. Inconclusive results and toxic doses are left out. Rule as the data show it: active = T/C of 150% or more; inactive = T/C below 125%.

Test system: L1210 leukemia ip in BDF1 mice, survival T/C
Assay: NCI In Vivo Anticancer Drug Screen. Data for tumor model L1210 Leukemia (intraperitoneal) in B6D2F1 (BDF1) mice
Conditions: endpoint: mean survival time, higher = longer survival
Summary of the method: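 Ratio derived from survival: compound-dosed mice over vehicle-dosed mice, all bearing a transplantable tumor.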

[1] = dose: 100.0 mg/kg/injection, schedule: Q01DX009 (ip), vehicle: Klucel (hydroxypropylcellulose) (HPC)
[2] = dose: 200.0 mg/kg/injection, schedule: Q01DX009 (ip), vehicle: Klucel (hydroxypropylcellulose) (HPC)
[3] = dose: 400.0 mg/kg/injection, schedule: Q01DX009 (ip), vehicle: Klucel (hydroxypropylcellulose) (HPC)
[4] = dose: 100.0 mg/kg/injection, schedule: Q01DX009 (ip), vehicle: saline with Tween-80
[5] = dose: 400.0 mg/kg/injection, schedule: Q01DX009 (ip), vehicle: saline with Tween-80
[6] = dose: 200.0 mg/kg/injection, schedule: Q01DX009 (ip), vehicle: saline
[7] = dose: 100.0 mg/kg/injection, schedule: Q04DX003 (ip), vehicle: Klucel (hydroxypropylcellulose) (HPC)
[8] = dose: 200.0 mg/kg/injection, schedule: Q04DX003 (ip), vehicle: Klucel (hydroxypropylcellulose) (HPC)
[9] = dose: 400.0 mg/kg/injection, schedule: Q04DX003 (ip), vehicle: Klucel (hydroxypropylcellulose) (HPC)
[10] = dose: 200.0 mg/kg/injection, schedule: Q01DX009 (ip), vehicle: saline with Tween-80

Measured: T/C

FC(F)(F)c1ccc2c(c1)N(CCCN1CCN(CCOCCCl)CC1)c1ccccc1S2
inactive: dose: 0.19 mg/kg/injection, schedule: Q01DX009 (ip), vehicle: saline 104 % of control | dose: 0.39 mg/kg/injection, schedule: Q01DX009 (ip), vehicle: saline 94 % of control | dose: 0.78 mg/kg/injection, schedule: Q01DX009 (ip), vehicle: saline 98 % of control | dose: 1.17 mg/kg/injection, schedule: Q04DX003 (ip), vehicle: saline 101 % of control | dose: 1.56 mg/kg/injection, schedule: Q01DX009 (ip), vehicle: saline 107 % of control | dose: 2.34 mg/kg/injection, schedule: Q04DX003 (ip), vehicle: saline 95 % of control | dose: 3.12 mg/kg/injection, schedule: Q01DX009 (ip), vehicle: saline 89 % of control | dose: 4.68 mg/kg/injection, schedule: Q04DX003 (ip), vehicle: saline 98 % of control | dose: 6.25 mg/kg/injection, schedule: Q04DX003 (ip), vehicle: saline 108 % of control | dose: 9.9 mg/kg/injection, schedule: Q01DX001 (ip), vehicle: saline 97 % of control | dose: 12.5 mg/kg/injection, schedule: Q04DX003 (ip), vehicle: saline 119 % of control | dose: 15.0 mg/kg/injection, schedule: Q01DX001 (ip), vehicle: saline 102 % of control | dose: 22.5 mg/kg/injection, schedule: Q01DX001 (ip), vehicle: saline 103 % of control | dose: 25.0 mg/kg/injection, schedule: Q04DX003 (ip), vehicle: saline 122 % of control | dose: 50.0 mg/kg/injection, schedule: Q04DX003 (ip), vehicle: saline 90 % of control

CCCCCCCCCCCCCCCCCCNC(=O)Oc1ccc(Cl)c(C)c1
inactive: [1] 88 % of control | dose: 100.0 mg/kg/injection, schedule: Q04DX003 (ip), vehicle: gum acacia 88 % of control | [2] 92 % of control | dose: 200.0 mg/kg/injection, schedule: Q04DX003 (ip), vehicle: gum acacia 86 % of control | [3] 92 % of control | dose: 400.0 mg/kg/injection, schedule: Q04DX003 (ip), vehicle: gum acacia 89 % of control

O=C(N/N=C/c1ccc(Cl)cc1)C(O)(c1ccccc1)c1ccccc1
inactive: [4] 88 % of control | [5] 102 % of control

O=C1CN(CO)C(=O)CN1CO
inactive: dose: 44.0 mg/kg/injection, schedule: Q01DX009 (ip), vehicle: saline 105 % of control | dose: 66.0 mg/kg/injection, schedule: Q01DX009 (ip), vehicle: saline 99 % of control | dose: 150.0 mg/kg/injection, schedule: Q01DX009 (ip), vehicle: saline 108 % of control | [6] 105 % of control | dose: 400.0 mg/kg/injection, schedule: Q01DX009 (ip), vehicle: saline 106 % of control

CC(=O)c1cccc2ccccc12
inactive: dose: 25.0 mg/kg/injection, schedule: Q04DX002 (ip), vehicle: Klucel (hydroxypropylcellulose) (HPC) 103 % of control | dose: 50.0 mg/kg/injection, schedule: Q04DX002 (ip), vehicle: Klucel (hydroxypropylcellulose) (HPC) 100 % of control | dose: 100.0 mg/kg/injection, schedule: Q04DX002 (ip), vehicle: Klucel (hydroxypropylcellulose) (HPC) 103 % of control

CNC(=O)C(=O)NCCCN1CC1
inactive: dose: 12.5 mg/kg/injection, schedule: Q04DX003 (ip), vehicle: Klucel (hydroxypropylcellulose) (HPC) 114 % of control | dose: 25.0 mg/kg/injection, schedule: Q04DX003 (ip), vehicle: Klucel (hydroxypropylcellulose) (HPC) 104 % of control

CS(=O)(=O)OCC(O)C(O)COS(C)(=O)=O (configuration not stated)
inactive: dose: 50.0 mg/kg/injection, schedule: Q01DX010 (ip), vehicle: saline 93 % of control and 91 % of control | dose: 100.0 mg/kg/injection, schedule: Q01DX010 (ip), vehicle: saline 96 % of control | dose: 125.0 mg/kg/injection, schedule: Q01DX Z (ip), vehicle: carboxymethylcellulose (CMC) 103 % of control | dose: 200.0 mg/kg/injection, schedule: Q01DX010 (ip), vehicle: saline 102 % of control and 108 % of control | dose: 250.0 mg/kg/injection, schedule: Q01DX Z (ip), vehicle: carboxymethylcellulose (CMC) 112 % of control | dose: 400.0 mg/kg/injection, schedule: Q01DX010 (ip), vehicle: saline 117 % of control | dose: 440.0 mg/kg/injection, schedule: Q01DX001 (ip), vehicle: carboxymethylcellulose (CMC) 101 % of control and 107 % of control | dose: 500.0 mg/kg/injection, schedule: Q01DX Z (ip), vehicle: carboxymethylcellulose (CMC) 123 % of control | dose: 670.0 mg/kg/injection, schedule: Q01DX001 (ip), vehicle: carboxymethylcellulose (CMC) 101 % of control and 107 % of control | dose: 1000.0 mg/kg/injection, schedule: Q01DX001 (ip), vehicle: carboxymethylcellulose (CMC) 103 % of control and 110 % of control

COc1ccc2c(c1)C(=O)C1CC3(CCC21)OCCO3 (configuration not stated)
inactive: [1] 101 % of control | [7] 109 % of control | [2] 97 % of control | [8] 93 % of control | [3] 95 % of control | [9] 100 % of control

CCC(C)N(CCNc1cc(C)nc(/N=C(\N)Nc2ccc(Cl)c(Cl)c2)n1)C(C)CC (configuration not stated)
inactive: [1] 106 % of control | [2] 97 % of control | [3] 86 % of control

COC(=O)c1ccc(OC(=O)Nc2cccc(Cl)c2C)cc1
inactive: [4] 98 % of control and 100 % of control | dose: 100.0 mg/kg/injection, schedule: Q04DX002 (ip), vehicle: saline with Tween-80 93 % of control and 91 % of control | [10] 95 % of control and 91 % of control | dose: 200.0 mg/kg/injection, schedule: Q04DX002 (ip), vehicle: saline with Tween-80 96 % of control and 87 % of control | dose: 400.0 mg/kg/injection, schedule: Q04DX002 (ip), vehicle: saline with Tween-80 96 % of control and 97 % of control

C[Si](C)(C)OC/C=C\CO[Si](C)(C)C
inactive: dose: 100.0 mg/kg/injection, schedule: Q01DX009 (ip), vehicle: saline 96 % of control | dose: 100.0 mg/kg/injection, schedule: Q04DX003 (ip), vehicle: alcohol 103 % of control | [6] 94 % of control | dose: 200.0 mg/kg/injection, schedule: Q04DX003 (ip), vehicle: alcohol 101 % of control | dose: 400.0 mg/kg/injection, schedule: Q04DX003 (ip), vehicle: alcohol 96 % of control

C/C=C/C1OCCO1
inactive: dose: 100.0 mg/kg/injection, schedule: Q01DX009 (ip), vehicle: acetone 92 % of control

CC1NC(=O)OC1(C)C(C)(C)C (configuration not stated)
inactive: dose: 5.0 mg/kg/injection, schedule: Q04DX003 (ip), vehicle: saline with Tween-80 97 % of control | dose: 10.0 mg/kg/injection, schedule: Q04DX003 (ip), vehicle: saline with Tween-80 100 % of control | dose: 20.0 mg/kg/injection, schedule: Q04DX003 (ip), vehicle: saline with Tween-80 96 % of control

CC(=O)C1CCC2C3CCC4CC(O)CCC4(C)C3CCC12C#N (configuration not stated)
inactive: dose: 100.0 mg/kg/injection, schedule: Q01DX009 (sc), vehicle: steriod suspending solution 101 % of control | dose: 100.0 mg/kg/injection, schedule: Q04DX003 (sc), vehicle: steriod suspending solution 93 % of control | dose: 200.0 mg/kg/injection, schedule: Q01DX009 (sc), vehicle: steriod suspending solution 108 % of control | dose: 200.0 mg/kg/injection, schedule: Q04DX003 (sc), vehicle: steriod suspending solution 102 % of control | dose: 400.0 mg/kg/injection, schedule: Q01DX009 (sc), vehicle: steriod suspending solution 108 % of control | dose: 400.0 mg/kg/injection, schedule: Q04DX003 (sc), vehicle: steriod suspending solution 104 % of control

Nc1cccc2c1C(=O)c1ccccc1-2
inactive: [4] 97 % of control | [10] 103 % of control | [5] 97 % of control

Cc1ccc(C(=O)C(c2ccccc2)C(Cl)c2ccccc2)cc1 (configuration not stated)
inactive: [1] 98 % of control | [7] 92 % of control | [2] 104 % of control | [8] 98 % of control | [3] 92 % of control | [9] 102 % of control

CN(C)c1ccc(/C=N/Nc2c([N+](=O)[O-])cc(C(F)(F)F)cc2[N+](=O)[O-])cc1
inactive: dose: 100.0 mg/kg/injection, schedule: Q01DX009 (ip), vehicle: gum acacia 90 % of control | dose: 200.0 mg/kg/injection, schedule: Q01DX009 (ip), vehicle: gum acacia 88 % of control | dose: 400.0 mg/kg/injection, schedule: Q01DX009 (ip), vehicle: gum acacia 88 % of control

NC(=O)c1ccccc1NC(=O)Nc1c(Cl)cccc1Cl
inactive: [1] 94 % of control | [2] 106 % of control | [3] 120 % of control
